{"source": "patent US20070140978A1", "about": "“Adrenergic complement inhaler” (priority 2004, published 2007)", "system": "child with severe nasal congestion due to a cold", "experiment": "Severe nasal congestion due to a cold, child", "assay_type": "in vivo, human", "conditions": "every four hours", "text": "A child presents with severe nasal congestion due to a cold. […] The child then supplements the oral medication by using the composition of this Example, one spray into each nostril, following each dose of the oral medication."}
{"smiles": "CN[C@@H](C)[C@@H](O)c1ccccc1", "note": "[pseudophedrine]", "values": [{"measurement": "relief of nasal congestion, oral medication alone", "result": "limited relief"}]}
